# From publication PMC4531110 (Chemical biology & drug design, 2015)
# Entries after “also recorded” stand apart in the source; their conditions may differ. Read-outs that look alike come from different tables or passages of the source.
# Legend:
# [1] = test system: influenza RNA promoter; format: binding, influenza A virus; details: for line broadening of the imino protons of U27: 1D 1H NMR; for Kd: pH 6; for binding to the RNA promoter (1D 1H NMR, imino protons of U26, G13): 30 or 50 μM RNA promoter
# [2] = test system: A/WSN/33 influenza virus (WSN-Ren luciferase virus) in MDCK-HA cells; details: cell-based viral replication (luciferase) assay; cited from earlier work
# [3] = molecular target: influenza RNA promoter; details: from peak intensity of imino protons of U26, G13 and G24; cited from earlier work
# [4] = test system: WSN-Ren luciferase virus; test: Viral replication assay by RT-PCR, WSN nucleoprotein mRNA level in MDCK-HA cells; format: cell-based, influenza A virus; details: 50 μM, standardized against beta-actin, vs DMSO
# [5] = test system: MDCK cells; details: cited from earlier work
# [6] = test system: A/WSN/33 influenza virus (WSN-Ren luciferase virus) in MDCK-HA cells; details: for IC50/CC50: ratio of WSN-Ren IC50 to ATPlite CC50
# [7] = in vitro; details: dog
# [8] = test system: wild-type influenza virus (A/Puerto Rico/8/1935); format: cell-based
# [9] = test system: MDCK cells
# [10] = ATPlite assay for cytotoxicity assessment; details: dog, MDCK cells (results text: MDCK-HA cells)
SMILES,line broadening of the imino protons of U27 [1],Kd [1],IC50/CC50 [6],"binding to the RNA promoter (1D 1H NMR, imino protons of U26, G13) [1]",CC50 at 24 h [7],also measured
"COc1cc2nc(N3CCNCC3)nc(N)c2cc1OC [Compound 1, 6,7-dimethoxy-2-(1-piperazinyl)-4-quinazolinamine]",caused line broadening of the imino protons of U27,61.5 µM,<0.55,–,–,IC50 [2]: 549 µM; Kd [3]: 50.5 ± 9 µM; inhibition of viral nucleoprotein mRNA production [4]: not effective; CC50 [5]: > 1000 µM
"COc1cc2nc(N3CCN(C(=O)CNC(=O)CNC(=O)CN)CC3)nc(N)c2cc1OC [Compound 3, 2-amino-N-(2-((2-(4-(4-amino-6,7-dimethoxyquinazolin-2-yl)piperazin-1-yl)-2-oxoethyl)amino)-2-oxoethyl)acetamide]",caused line broadening of the imino protons of U27,132 µM,–,bound to the influenza RNA promoter; also recorded: compound binding to the RNA promoter,> 250 µM,–
"COc1cc2nc(N3CCN(C(=O)CCCCN)CC3)nc(N)c2cc1OC [Compound 4, 5-amino-1-(4-(4-amino-6,7-dimethoxyquinazolin-2-yl)piperazin-1-yl)pentan-1-one]",caused line broadening of the imino protons of U27,–,–,bound to the influenza RNA promoter; also recorded: compound binding to the RNA promoter,> 250 µM,–
"COc1cc2nc(N3CCN(S(C)(=O)=O)CC3)nc(N)c2cc1OC [Compound 5, 6,7-dimethoxy-2-(4-(methylsulfonyl)piperazin-1-yl)quinazolin-4-amine]",caused line broadening of the imino protons of U27,–,–,bound to the influenza RNA promoter; also recorded: compound binding to RNA promoter,> 250 µM,–
"CCC(=O)N1CCN(c2nc(N)c3cc(OC)c(OC)cc3n2)CC1 [Compound 6, 1-(4-(4-amino-6,7-dimethoxyquinazolin-2-yl)piperazin-1-yl)propan-1-one]",–,114 µM,<0.16,compound binding to RNA promoter,> 250 µM,–
"COc1cc2nc(N3CCN(C(=O)C(C)C)CC3)nc(N)c2cc1OC [Compound 7, 1-(4-(4-amino-6,7-dimethoxyquinazolin-2-yl)piperazin-1-yl)-2-methylpropan-1-one]",caused line broadening of the imino protons of U27,158 µM,<0.14,compound binding to RNA promoter,> 250 µM,IC50 [6]: 33.9 ± 23.2 µM
"CCCC(=O)N1CCN(c2nc(N)c3cc(OC)c(OC)cc3n2)CC1 [Compound 8, 1-(4-(4-amino-6,7-dimethoxyquinazolin-2-yl)piperazin-1-yl)butan-1-one]",–,44.4 µM,<0.18,compound binding to RNA promoter,> 250 µM,IC50 [6]: 44.2 ± 11.3 µM
"COc1cc2nc(N3CCN(C(=O)CCO)CC3)nc(N)c2cc1OC [Compound 9, 1-(4-(4-amino-6,7-dimethoxyquinazolin-2-yl)piperazin-1-yl)-3-hydroxypropan-1-one]",caused line broadening of the imino protons of U27,–,–,bound to the influenza RNA promoter; also recorded: compound binding to RNA promoter,> 250 µM,–
"COc1cc2nc(N3CCN(C(=O)C4CC4)CC3)nc(N)c2cc1OC [Compound 10, (4-(4-amino-6,7-dimethoxyquinazolin-2-yl)piperazin-1-yl)(cyclopropyl)methanone]",–,127 µM,<0.14,compound binding to RNA promoter,> 250 µM,inhibition of A/PR8 nucleoprotein mRNA level [8]: significant dose-dependent inhibitory activity; also recorded: showed inhibitory effects; IC50 [6]: 34.2 ± 17.2 µM
"COc1cc2nc(N3CCN(C(=O)C(C)OC)CC3)nc(N)c2cc1OC (centres unmarked) [Compound 11, 1-(4-(4-amino-6,7-dimethoxyquinazolin-2-yl)piperazin-1-yl)-2-methoxypropan-1-one]",caused line broadening of the imino protons of U27,–,–,bound to the influenza RNA promoter; also recorded: compound binding to RNA promoter,> 250 µM,–
"COc1cc2nc(N3CCN(C(=O)C45CC6CC(CC(C6)C4)C5)CC3)nc(N)c2cc1OC [Compound 12, (1r,3R,5S)-adamantan-1-yl(4-(4-amino-6,7-dimethoxyquinazolin-2-yl)piperazin-1-yl)methanone]",–,–,>15.24,bound to the influenza RNA promoter; also recorded: compound binding to RNA promoter,–,CC50 [9]: 16.4 µM; IC50 [6]: > 250 µM
"COc1cc2nc(N3CCN(C(=O)C4CCCO4)CC3)nc(N)c2cc1OC (centres unmarked) [Compound 13, (4-(4-amino-6,7-dimethoxyquinazolin-2-yl)piperazin-1-yl)(tetrahydrofuran-2-yl)methanone]",–,–,–,–,–,CC50 at 24 h [10]: > 250 µM
"COc1cc2nc(N3CCN(C(=O)c4ccco4)CC3)nc(N)c2cc1OC [Compound 14, (4-(4-amino-6,7-dimethoxyquinazolin-2-yl)piperazin-1-yl)(furan-2-yl)methanone]",caused line broadening of the imino protons of U27,–,0.36,compound binding to RNA promoter,–,CC50 at 24 h [10]: 78.2 µM
"COc1cc2nc(N3CCN(C(=O)c4cccs4)CC3)nc(N)c2cc1OC [Compound 15, (4-(4-amino-6,7-dimethoxyquinazolin-2-yl)piperazin-1-yl)(thiophen-2-yl)methanone]",–,221 µM,0.25,compound binding to RNA promoter,67 µM,–
"COc1cc2nc(N3CCN(C(=O)c4ccccc4)CC3)nc(N)c2cc1OC [Compound 16, (4-(4-amino-6,7-dimethoxyquinazolin-2-yl)piperazin-1-yl)(phenyl)methanone]",–,321 µM,<0.43,compound binding to RNA promoter,> 250 µM,–
"CCOC(=O)C1=C[C@@H](OC(CC)CC)[C@H](NC(C)=O)[C@@H](N)C1 [Oseltamivir phosphate, oseltamivir phosphate, reference compound]",–,–,–,–,–,inhibition of A/PR8 nucleoprotein mRNA level [8]: showed inhibitory effects
